Measurements reported in ChEMBL document CHEMBL5252592, “Design, synthesis, and biological activity evaluation of novel tubulin polymerization inhibitors based on pyrimidine ring skeletons” (Bioorg Med Chem Lett, 2023).
Calls of active or inactive are those of the source. The rule behind the calls is not given here.

Columns and labels:
[1] = tested on: HepG2; assay: Antiproliferative activity against human HepG2 cells assessed as inhibition of cell growth; assay type: functional, cell-based
[2] = tested on: HepG2; assay: Induction of apoptosis in human HepG2 cells assessed as total apoptotic cells at 100 nM incubated for 48 hrs by AnnexinV-FITC/PI staining based flow cytometric analysis (reference value: 5.16%); assay type: functional
[3] = tested on: HepG2; assay: Induction of cell cycle arrest in human HepG2 cells assessed as decrease in G1 phase cells at 100 nM incubated for 24 hrs by PI staining based flow cytometric analysis (reference value: 73.85%); assay type: functional; parameters: scale not given: the % may be the effect or the level left
[4] = tested on: HepG2; assay: Antiinvasive activity in human HepG2 cells assessed as decrease in cells invading inferior chamber by transwell assay; assay type: functional, cell-based; conditions: dose 50-200 nM
[5] = tested on: HepG2; assay: Antimigratory activity in human HepG2 cells assessed as reduction in wound closure by scratch assay; assay type: functional, cell-based; conditions: dose 50-200 nM
[6] = tested on: HepG2; assay: Induction of apoptosis in human HepG2 cells assessed as viable cells at 100 nM incubated for 48 hrs by AnnexinV-FITC/PI staining based flow cytometric analysis (reference value: 92.0%); assay type: functional; conditions: read-out: Activity
[7] = tested on: HepG2; assay: Induction of G2/M phase cell cycle arrest in human HepG2 cells assessed as decrease in cyclinB1 protein expression by Western blot analysis; assay type: functional, cell-based; conditions: dose 50-200 nM
[8] = molecular target: T1, Tubulin (Homo sapiens) (UniProt P68371+Q9H4B7+P0DPH7+P68366+Q13509+Q71U36+P04350+Q3ZCM7+P07437+P68363+Q9BQE3+Q6PEY2+Q13885+Q9BVA1+Q9BUF5); assay: Inhibition of tubulin polymerization (unknown origin) assessed as decrease in fluorescence intensity at 2 uM; assay type: protein-complex assay; conditions: time 1000-2000 min, TDE = time-dependent effect
[9] = tested on: HepG2; assay: Induction of apoptosis in human HepG2 cells assessed as total apoptotic cells at 200 nM incubated for 48 hrs by AnnexinV-FITC/PI staining based flow cytometric analysis (reference value: 5.16%); assay type: functional
[10] = tested on: HepG2; assay: Induction of apoptosis in human HepG2 cells assessed as late apoptotic cells at 100 nM incubated for 48 hrs by AnnexinV-FITC/PI staining based flow cytometric analysis (reference value: 3.33%); assay type: functional
[11] = tested on: A549; assay: Antiproliferative activity against human A549 cells assessed as inhibition of cell growth; assay type: functional, cell-based
[12] = tested on: HepG2; assay: Induction of apoptosis in human HepG2 cells assessed as necrotic cells at 100 nM incubated for 48 hrs by AnnexinV-FITC/PI staining based flow cytometric analysis (reference value: 2.82%); assay type: functional
[13] = tested on: HepG2; assay: Induction of cell cycle arrest in human HepG2 cells assessed as increase in G2 phase cells at 200 nM incubated for 24 hrs by PI staining based flow cytometric analysis (reference value: 13.40%); assay type: functional
[14] = tested on: HepG2; assay: Induction of cell cycle arrest in human HepG2 cells assessed as decrease in S phase cells at 100 nM incubated for 24 hrs by PI staining based flow cytometric analysis (reference value: 12.75%); assay type: functional; parameters: scale not given: the % may be the effect or the level left
[15] = tested on: HepG2; assay: Induction of apoptosis in human HepG2 cells assessed as late apoptotic cells at 50 nM incubated for 48 hrs by AnnexinV-FITC/PI staining based flow cytometric analysis (reference value: 3.33%); assay type: functional
[16] = tested on: HepG2; assay: Induction of apoptosis in human HepG2 cells assessed as late apoptotic cells at 200 nM incubated for 48 hrs by AnnexinV-FITC/PI staining based flow cytometric analysis (reference value: 3.33%); assay type: functional
[17] = tested on: HepG2; assay: Induction of cell cycle arrest in human HepG2 cells assessed as increase in G2 phase cells at 50 nM incubated for 24 hrs by PI staining based flow cytometric analysis (reference value: 13.40%); assay type: functional
[18] = tested on: HepG2; assay: Induction of cell cycle arrest in human HepG2 cells assessed as decrease in S phase cells at 50 nM incubated for 24 hrs by PI staining based flow cytometric analysis (reference value: 12.75%); assay type: functional; parameters: scale not given: the % may be the effect or the level left
[19] = tested on: HepG2; assay: Induction of apoptosis in human HepG2 cells assessed as viable cells at 50 nM incubated for 48 hrs by AnnexinV-FITC/PI staining based flow cytometric analysis (reference value: 92.0%); assay type: functional; conditions: read-out: Activity
[20] = tested on: HepG2; assay: Induction of cell cycle arrest in human HepG2 cells assessed as decrease in S phase cells at 200 nM incubated for 24 hrs by PI staining based flow cytometric analysis (reference value: 12.75%); assay type: functional; parameters: scale not given: the % may be the effect or the level left
[21] = tested on: HepG2; assay: Induction of apoptosis in human HepG2 cells assessed as necrotic cells at 50 nM incubated for 48 hrs by AnnexinV-FITC/PI staining based flow cytometric analysis (reference value: 2.82%); assay type: functional
[22] = tested on: Y79; assay: Antiproliferative activity against human Y79 cells assessed as inhibition of cell growth; assay type: functional, cell-based
[23] = tested on: U-937; assay: Antiproliferative activity against human U-937 cells assessed as inhibition of cell growth; assay type: functional, cell-based
[24] = molecular target: T1, Tubulin (Homo sapiens); assay: Disruption of microtubule organization in human HepG2 cells assessed as cell shrinkage at 50 to 200 nM by immunofluorescence staining based laser confocal microscopic analysis; conditions: dose 50-200 nM
[25] = molecular target: T1, Tubulin (Homo sapiens); assay: Disruption of microtubule organization in human HepG2 cells assessed as round or polygonal shaped cells at 50 to 200 nM by immunofluorescence staining based laser confocal microscopic analysis; assay type: cell-based; conditions: dose 50-200 nM
[26] = tested on: HepG2; assay: Induction of apoptosis in human HepG2 cells assessed as total apoptotic cells at 50 nM incubated for 48 hrs by AnnexinV-FITC/PI staining based flow cytometric analysis (reference value: 5.16%); assay type: functional
[27] = tested on: HepG2; assay: Induction of apoptosis in human HepG2 cells assessed as early apoptotic cells at 50 nM incubated for 48 hrs by AnnexinV-FITC/PI staining based flow cytometric analysis (reference value: 1.83%); assay type: functional
[28] = molecular target: T1, Tubulin (Homo sapiens); assay: Disruption of microtubule organization in human HepG2 cells assessed as diffused intracellular microtubules at 50 to 200 nM by immunofluorescence staining based laser confocal microscopic analysis; assay type: cell-based; conditions: dose 50-200 nM
[29] = tested on: HepG2; assay: Induction of cell cycle arrest in human HepG2 cells assessed as decrease in G1 phase cells at 50 nM incubated for 24 hrs by PI staining based flow cytometric analysis (reference value: 73.85%); assay type: functional; parameters: scale not given: the % may be the effect or the level left
[30] = tested on: HepG2; assay: Induction of apoptosis in human HepG2 cells assessed as viable cells at 200 nM incubated for 48 hrs by AnnexinV-FITC/PI staining based flow cytometric analysis (reference value: 92.0%); assay type: functional; conditions: read-out: Activity
[31] = tested on: HepG2; assay: Induction of G2/M phase cell cycle arrest in human HepG2 cells assessed as increase in P21 protein expression by Western blot analysis; assay type: functional, cell-based; conditions: dose 50-200 nM
[32] = tested on: HepG2; assay: Induction of cell cycle arrest in human HepG2 cells assessed as increase in G2 phase cells at 100 nM incubated for 24 hrs by PI staining based flow cytometric analysis (reference value: 13.40%); assay type: functional
[33] = tested on: HepG2; assay: Induction of apoptosis in human HepG2 cells assessed as necrotic cells at 200 nM incubated for 48 hrs by AnnexinV-FITC/PI staining based flow cytometric analysis (reference value: 2.82%); assay type: functional
[34] = tested on: HepG2; assay: Induction of apoptosis in human HepG2 cells assessed as early apoptotic cells at 200 nM incubated for 48 hrs by AnnexinV-FITC/PI staining based flow cytometric analysis (reference value: 1.83%); assay type: functional
[35] = tested on: HepG2; assay: Induction of cell cycle arrest in human HepG2 cells assessed as decrease in G1 phase cells at 200 nM incubated for 24 hrs by PI staining based flow cytometric analysis (reference value: 73.85%); assay type: functional; parameters: scale not given: the % may be the effect or the level left
[36] = tested on: HepG2; assay: Induction of apoptosis in human HepG2 cells assessed as early apoptotic cells at 100 nM incubated for 48 hrs by AnnexinV-FITC/PI staining based flow cytometric analysis (reference value: 1.83%); assay type: functional

## COc1cc(Nc2nccc(-c3ccc4c(c3)OCCO4)n2)cc(OC)c1OC
[1]
  IC50: 110 nM
[2]
  Activity: 41.3%
[3]
  Activity: 65.52%
[4]
  Activity: Dose-Dependent Effect
[5]
  Activity: Dose-Dependent Effect
[6]
  viability at 0.1 µM: 57.9%
[7]
  Activity: Dose-Dependent Effect
[8]
  inhibition: Tde
[9]
  Activity: 43.6%
[10]
  Activity: 23.4%
[11]
  IC50: 800 nM
[12]
  Activity: 0.82%
[13]
  Activity: 35.99%
[14]
  Activity: 6.95%
[15]
  Activity: 16.9%
[16]
  Activity: 33.7%
[17]
  Activity: 26.08%
[18]
  Activity: 4.85%
[19]
  viability at 0.05 µM: 61.5%
[20]
  Activity: 0.88%
[21]
  Activity: 0.12%
[22]
  IC50: 100 nM
[23]
  IC50: 70 nM
[24]
  Activity: Active
[25]
  Activity: Active
[26]
  Activity: 38.4%
[27]
  Activity: 21.5%
[28]
  Activity: Active
[29]
  Activity: 69.07%
[30]
  viability at 0.2 µM: 63.3%
[31]
  Activity: Dose-Dependent Effect
[32]
  Activity: 27.53%
[33]
  Activity: 2.13%
[34]
  Activity: 10.9%
[35]
  Activity: 63.13%
[36]
  Activity: 17.9%
